Assays:
[1] = biological target: Disintegrin and metalloproteinase domain-containing protein 17 (Sus scrofa, UniProt O77636); assay: Inhibition of porcine TACE
[2] = Dissociation constant, pKa in water; type: physicochemical

Sequence of Disintegrin and metalloproteinase domain-containing protein 17 (O77636 whole entry, the tested form may be a part): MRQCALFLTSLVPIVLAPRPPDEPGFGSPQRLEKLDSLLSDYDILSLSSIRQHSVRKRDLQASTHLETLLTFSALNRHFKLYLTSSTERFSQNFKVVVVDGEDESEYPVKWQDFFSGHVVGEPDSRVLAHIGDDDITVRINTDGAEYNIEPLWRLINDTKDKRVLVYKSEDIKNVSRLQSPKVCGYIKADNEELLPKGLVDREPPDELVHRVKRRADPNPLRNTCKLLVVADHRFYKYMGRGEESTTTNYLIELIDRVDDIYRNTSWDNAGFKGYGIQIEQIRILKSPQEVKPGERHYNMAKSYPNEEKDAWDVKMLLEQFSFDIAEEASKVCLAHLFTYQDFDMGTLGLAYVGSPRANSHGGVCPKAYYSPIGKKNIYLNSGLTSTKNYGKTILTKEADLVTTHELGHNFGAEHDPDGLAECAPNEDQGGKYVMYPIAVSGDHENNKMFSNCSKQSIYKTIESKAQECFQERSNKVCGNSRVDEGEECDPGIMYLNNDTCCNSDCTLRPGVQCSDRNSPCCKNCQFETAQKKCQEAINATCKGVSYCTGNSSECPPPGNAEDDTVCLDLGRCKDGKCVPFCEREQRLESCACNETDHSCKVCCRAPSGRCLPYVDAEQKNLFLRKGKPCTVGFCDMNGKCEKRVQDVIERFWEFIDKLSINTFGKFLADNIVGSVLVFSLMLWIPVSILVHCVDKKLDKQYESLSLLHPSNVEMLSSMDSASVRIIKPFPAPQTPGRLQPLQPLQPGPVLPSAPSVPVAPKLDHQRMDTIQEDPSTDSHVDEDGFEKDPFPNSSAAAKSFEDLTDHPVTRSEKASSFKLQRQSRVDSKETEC

Row | SMILES | IC50 [1] [nM] | pKa [2]
1 | Cc1cc(COc2ccc(C3(N4CCN(C)CC4)C(=O)NC(=O)NC3=O)cc2)c2ccccc2n1 | 91 | 7.2
2 | Cc1cc(COc2ccc([C@@]3(C)CCN([C@@H](C)C(=O)NO)C3=O)cc2)c2ccccc2n1 | < 1 | 9
3 | Cc1cc(COc2ccc(C(=O)N[C@H]3CNC[C@@]34NC(=O)NC4=O)cc2)c2ccccc2n1 | 25 | –
4 | Cc1cc(COc2ccc(NC(=O)C[C@H]3CCC[C@]34NC(=O)NC4=O)cc2)c2ccccc2n1 [listing 1 of 2 here] | 17 | –
5 | Cc1cc(COc2ccc(NC(=O)C[C@@H]3CCC[C@]34NC(=O)NC4=O)cc2)c2ccccc2n1 | 7400 | –
6 | Cc1cc(COc2ccc(NC(=O)C[C@@H]3CCC[C@@]34NC(=O)NC4=O)cc2)c2ccccc2n1 | 11 | –
7 | Cc1cc(COc2ccc(NC(=O)[C@H]3CCC[C@]34NC(=O)NC4=O)cc2)c2ccccc2n1 | 230 | –
8 | Cc1cc(COc2ccc(NC(=O)[C@@H]3CCC[C@]34NC(=O)NC4=O)cc2)c2ccccc2n1 | 64 | –
9 | Cc1cc(COc2ccc(C(=O)NCC3NC(=O)NC3=O)cc2)c2ccccc2n1 (centres undefined) | 98 | –
10 | Cc1cc(COc2ccc(C(=O)N[C@@H]3CNC[C@]34NC(=O)NC4=O)cc2)c2ccccc2n1 | 900 | –
11 | Cc1cc(COc2ccc(NC(=O)C[C@H]3CCC[C@]34NC(=O)NC4=O)cc2)c2ccccc2n1 [listing 2 of 2 here] | 900 | 8.9
